PubChem BioAssay AID298 (DTP/NCI, 2004)
Several values for one entry are separate records, joined by “and”; a condition that tells them apart may be missing. Equal values may be shown once. Results filed as inconclusive are left out.

Test system: MX-1 breast xenograft, intrarenal, nude mice, tumor weight
Experiment: NCI In Vivo Anticancer Drug Screen. Data for tumor model Human Mammary Carcinoma MX-1 Xenograft (intrarenal inoculation) in NU/NU BALB/C (nude) mice
Conditions: endpoint: mean tumor weight change, higher = larger tumour
Summary of the method: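 T/C readout: treated-group measurement over vehicle-control measurement, using tumor size or survival in tumor-bearing mice.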

[1] = dose: 300.0 mg/kg/injection, schedule: Q04DX003 (sc), vehicle: saline with Tween-80
[2] = dose: 600.0 mg/kg/injection, schedule: Q04DX003 (sc), vehicle: saline with Tween-80
[3] = dose: 1200.0 mg/kg/injection, schedule: Q04DX003 (sc), vehicle: saline with Tween-80

CCCSc1nc(COC(=O)NC)c(COC(=O)NC)n1C
T/C (dose: 30.0 mg/kg/injection, schedule: Q04DX003 (ip), vehicle: saline): 74 % of control | T/C (dose: 60.0 mg/kg/injection, schedule: Q04DX003 (ip), vehicle: saline): 76 % of control | T/C (dose: 120.0 mg/kg/injection, schedule: Q04DX003 (ip), vehicle: saline): 70 % of control | T/C (dose: 240.0 mg/kg/injection, schedule: Q04DX003 (ip), vehicle: saline): 26 % of control

Cc1ccccc1N=C(c1ccccc1)C1C(=O)c2ccccc2C1=O
T/C (dose: 150.0 mg/kg/injection, schedule: Q04DX003 (ip), vehicle: DMSO): 117 % of control | T/C (dose: 300.0 mg/kg/injection, schedule: Q04DX003 (ip), vehicle: DMSO): 102 % of control | T/C (dose: 600.0 mg/kg/injection, schedule: Q04DX003 (ip), vehicle: DMSO): 103 % of control | T/C (dose: 1200.0 mg/kg/injection, schedule: Q04DX003 (ip), vehicle: DMSO): 65 % of control

[Cl][Hg][Cl]
T/C (dose: 5.0 mg/kg/injection, schedule: Q04DX003 (ip), vehicle: saline): 67 % of control

N#Cc1ccc(NN=O)nc1
T/C (dose: 12.5 mg/kg/injection, schedule: Q04DX003 (ip), vehicle: other): 95 % of control | T/C (dose: 12.5 mg/kg/injection, schedule: Q04DX003 (ip), vehicle: water): 38 % of control and 41 % of control | T/C (dose: 25.0 mg/kg/injection, schedule: Q04DX003 (ip), vehicle: other): 20 % of control | T/C (dose: 25.0 mg/kg/injection, schedule: Q04DX003 (ip), vehicle: water): 7 % of control and 9 % of control | T/C (dose: 50.0 mg/kg/injection, schedule: Q04DX003 (ip), vehicle: other): 4 % of control | T/C (dose: 50.0 mg/kg/injection, schedule: Q04DX003 (ip), vehicle: water): 1 % of control and 12 % of control | T/C (dose: 100.0 mg/kg/injection, schedule: Q04DX003 (ip), vehicle: other): -92 % of control | T/C (dose: 100.0 mg/kg/injection, schedule: Q04DX003 (ip), vehicle: water): -86 % of control

C=COC(=O)C(Cc1ccccc1)NC(=O)OCc1ccccc1 (centres undefined)
T/C [1]: 63 % of control | T/C [2]: 85 % of control | T/C [3]: 112 % of control

COC1C(N)C(OC2C(Oc3cccc4c(O)c5c(=O)oc6ccc(C)c7c(=O)oc(c34)c5c67)OC(C)C(O)C2(C)O)OC(C)C1O (centres undefined)
T/C (dose: 2.5 mg/kg/injection, schedule: Q04DX003 (ip), vehicle: lactic acid): 90 % of control | T/C (dose: 10.0 mg/kg/injection, schedule: Q04DX003 (ip), vehicle: lactic acid): 6 % of control

O=C(NC(Cc1ccc(I)cc1)C(=O)O)c1cccc(Br)c1 (centres undefined)
T/C (dose: 150.0 mg/kg/injection, schedule: Q04DX003 (ip), vehicle: Klucel (hydroxypropylcellulose) (HPC)): 57 % of control | T/C (dose: 300.0 mg/kg/injection, schedule: Q04DX003 (ip), vehicle: Klucel (hydroxypropylcellulose) (HPC)): 72 % of control | T/C (dose: 600.0 mg/kg/injection, schedule: Q04DX003 (ip), vehicle: Klucel (hydroxypropylcellulose) (HPC)): 76 % of control

CC1=C/C(O)CC(=O)Cc2nc(co2)C(=O)N2CCC=C2C(=O)OC(C(C)C)C(C)/C=C\C(=O)NC/C=C\1 (centres undefined)
T/C (dose: 600.0 mg/kg/injection, schedule: Q04DX003 (sc), vehicle: Klucel (hydroxypropylcellulose) (HPC)): 104 % of control | T/C (dose: 1200.0 mg/kg/injection, schedule: Q04DX003 (sc), vehicle: Klucel (hydroxypropylcellulose) (HPC)): 92 % of control | T/C (dose: 2400.0 mg/kg/injection, schedule: Q04DX003 (sc), vehicle: Klucel (hydroxypropylcellulose) (HPC)): 88 % of control

C=C1C(O)C2(O)OCC34C(CC5C(C)=CC(=O)C(O)C5(C)C23)OC(=O)C(OC(=O)C/C=C(\C)CCCCC)C14 (centres undefined)
T/C (dose: 1.5 mg/kg/injection, schedule: Q04DX003 (ip), vehicle: saline + alcohol): 69 % of control | T/C (dose: 3.0 mg/kg/injection, schedule: Q04DX003 (ip), vehicle: saline + alcohol): 87 % of control | T/C (dose: 6.0 mg/kg/injection, schedule: Q04DX003 (ip), vehicle: saline + alcohol): 47 % of control | T/C (dose: 12.0 mg/kg/injection, schedule: Q04DX003 (ip), vehicle: saline + alcohol): 43 % of control

CC(=O)Oc1[nH]c(=O)c2cccc3c2c1CCC3
T/C [1]: 107 % of control | T/C [2]: 93 % of control | T/C [3]: 118 % of control | T/C (dose: 2400.0 mg/kg/injection, schedule: Q04DX003 (sc), vehicle: saline with Tween-80): 89 % of control

OC(CBr)C(O)C(O)C(O)CBr (centres undefined)
T/C (dose: 15.0 mg/kg/injection, schedule: Q01DX010 (ip), vehicle: Klucel (hydroxypropylcellulose) (HPC)): 29 % of control | T/C (dose: 30.0 mg/kg/injection, schedule: Q01DX010 (ip), vehicle: Klucel (hydroxypropylcellulose) (HPC)): 13 % of control | T/C (dose: 50.0 mg/kg/injection, schedule: Q04DX003 (ip), vehicle: Klucel (hydroxypropylcellulose) (HPC)): 93 % of control | T/C (dose: 50.0 mg/kg/injection, schedule: Q04DX003 (sc), vehicle: Klucel (hydroxypropylcellulose) (HPC)): 35 % of control | T/C (dose: 60.0 mg/kg/injection, schedule: Q01DX010 (ip), vehicle: Klucel (hydroxypropylcellulose) (HPC)): -22 % of control | T/C (dose: 100.0 mg/kg/injection, schedule: Q04DX003 (ip), vehicle: Klucel (hydroxypropylcellulose) (HPC)): 61 % of control | T/C (dose: 100.0 mg/kg/injection, schedule: Q04DX003 (sc), vehicle: Klucel (hydroxypropylcellulose) (HPC)): 33 % of control | T/C (dose: 200.0 mg/kg/injection, schedule: Q04DX003 (ip), vehicle: Klucel (hydroxypropylcellulose) (HPC)): -44 % of control
